Measured values from patent publication US12098162B2, “Neutral glycosylated amides and dianionic glucuronidated acids as stabilizers for biological molecules” (Extremochem, LDA, priority 2017, dated 2024).

Experiments:
Assay type in all cases: physicochemical
lysozyme = lysozyme (Gallus gallus, UniProt P00698); experiment: Stabilization of lysozyme measured by DSF (melting temperature); conditions: 0.25 M stabiliser, FIG. 1; for stabilization effect on lysozyme (increase of melting temperature Tm): 25 mM sodium acetate buffer pH 3.6 and phosphate buffer pH 12, Tm without compounds 71 °C (pH 3.6) and 55 °C (pH 12); for stabilization effect on lysozyme at pH 12 compared with pH 3.6: DSF
Sequence of lysozyme (P00698 19-147): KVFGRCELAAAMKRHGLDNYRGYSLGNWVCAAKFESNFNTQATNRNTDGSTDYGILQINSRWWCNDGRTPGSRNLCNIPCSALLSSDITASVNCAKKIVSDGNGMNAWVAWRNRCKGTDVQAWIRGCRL
Experimental: (§1) Differential Scanning Fluorimetry (DSF) Assay
(§2) The protein melting temperature (Tm) determination was performed by monitoring protein unfolding with the fluoroprobe SYPRO Orange dye (Molecular Probes), which although completely quenched in aqueous environment, emits fluorescence upon binding to protein hydrophobic patches. Such increase in fluorescence can be measured as a function of temperature. The thermal shift assay was performed on an iCycle iQ5 Real Time PCR Detection System (Bio-Rad), equipped with a charge-coupled device (CCD) camera and a Cy3 filter with excitation and emission wavelengths of 490 and 575 nm, respectively. This equipment can simultaneously detect the fluorescence changes in 96-well plates (low profile plate, Bio-Rad) and thus can be used for parallel thermal stability assays. The 96-well plates are sealed with optical quality sealing tape (Bio-Rad) and centrifuged at 2500 g for 1 minutes immediately before the assay to remove possible air bubbles. The plates are subsequently heated from 20 to 90° C. with stepwise increments of 1° C. with 60 seconds equilibration time, followed by the fluorescence read out. Fluorescence intensities versus temperature are used to calculate the protein melting temperature (Tm) by determining the first derivative (d(Rfu)/dT) and extract the exact transition inflection point. Delta TM values (DTM) for the various conditions were calculated by subtracting the TM value obtained for the reference from the TM value obtained for each condition.
(§3) In a typical assay with a total volume of 20 μL, a protein concentration from 0.1-0.5 mg/mL and a dye concentration of 5 fold were used to guarantee the best signal to noise ratio. The protein stock solutions were prepared in their corresponding buffers before performing the DSF experiments. Stabiliser solutions and dyes were prepared according to each assay specific conditions. The assay was prepared by adding 1-2 μL of protein to 8-9 μL of dye buffer solution, and 10 μL of compound solution. Controls were prepared by replacing the volume of stabilisers by the correspondent buffer.
The stabilization of lysozyme in the presence of several stabilisers at 0.25 M concentration and at pH 3.6 and pH 12 was studied using DSF (FIG. 1). […] The stabilization effect was higher for GBA, GaGlyA, b-GGlyA, b-GaLA, b-GaGlyA, and b-GaBA at the higher pH (pH 12). All new compounds are able to stabilise lysozyme under both stress conditions.

adalimumab (Humira®) [1] = experiment: Stabilization assay of adalimumab measured by DSF; conditions: 0.25 M stabiliser; phosphate buffer pH 12; Tm without compounds 41 °C; FIG. 3
Experimental: as §1
as §2, with “The 96-well plates are sealed with optical quality sealing tape (Bio-Rad) and centrifuged at 2500 g for 1 minutes immediately before the assay to remove possible air bubbles.” left out, “condition. […]” for “condition.”

Factor IX = Factor IX (Homo sapiens, UniProt P00740); experiment: Stabilization assay of Factor IX measured by DSF; conditions: 0.25 M stabiliser in water, pH 7-8; Tm without compounds 50 °C; FIG. 5
Sequence of Factor IX (P00740 47-461): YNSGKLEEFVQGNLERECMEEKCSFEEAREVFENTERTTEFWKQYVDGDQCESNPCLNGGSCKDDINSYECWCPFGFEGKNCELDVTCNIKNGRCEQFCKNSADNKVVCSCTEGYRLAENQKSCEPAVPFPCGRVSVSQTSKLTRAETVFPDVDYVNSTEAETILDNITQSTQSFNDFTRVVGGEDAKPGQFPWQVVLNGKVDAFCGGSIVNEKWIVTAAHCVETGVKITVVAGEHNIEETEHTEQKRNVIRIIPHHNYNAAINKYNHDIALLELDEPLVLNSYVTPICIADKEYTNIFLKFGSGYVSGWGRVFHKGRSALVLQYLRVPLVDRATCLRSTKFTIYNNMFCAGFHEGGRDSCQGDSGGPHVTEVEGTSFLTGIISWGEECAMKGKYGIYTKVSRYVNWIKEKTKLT
Experimental: as §1, §2, §3
Stabilization of Factor IX using neutral amide-containing glycosides of the present invention were measured using DSF. The new stabilizers increased the melting temperature of factor IX at a 0.25 M concentration in water and at pH 7-8, as shown in FIG. 5.

adalimumab (Humira®) [2] = experiment: Stabilization assay of adalimumab (Humira) measured by HPSEC under low pH stress; conditions: GaGlyA 0.5 M; Humira 0.4 mg/ml; room temperature, no thermal stress; compared with no stabiliser; FIG. 2
Experimental: High Performance Size Exclusion Chromatography (HPSEC) Assay
HP-SEC was performed with Waters 515 pump, a Waters 2487 Dual Absorbance Detector (Waters, USA) and a Rheodyme 77251 injector (Waters, USA). A TSK Gel G3000 SWXL column (300 mm×7.8 mm) (Tosoh Biosep, Germany) was used. The volume of injection was adjusted according to each sample concentration in order to inject […] sample of biological molecule, and separation was performed at a flow rate of 1.0 mL/min or adjusted as appropriate. A suitable running buffer was used, e.g., 100 mM sodium sulfate, 100 mM sodium phosphate dibasic pH 6.8 for Humira® samples. UV detection was performed at a wavelength suitable to detect the biological molecule, e.g., 280 nm. No thermal stress was applied and assay was performed at room temperature. Absorbance was measured to determine the concentration of biological molecule and thus determine amount of degredation of the biological molecule.
A pH titration of adalimumab (Humira®) to pH 3.2 was performed either in the absence and presence of stabiliser GaGlyA 0.5 M, and the results were analysed by HPSEC (FIG. 2). […] Absorbance was measured to determine the concentration of biological molecule and thus determine amount of degredation of the biological molecule. […]

ubiquitin = molecular target: T1, ubiquitin (Homo sapiens, UniProt P0CG47); experiment: Stabilization assay of ubiquitin measured by DSF; conditions: 0.25 M compound; phosphate buffer pH 12; Tm without compounds 72 °C; FIG. 4
T1 construct: Stabilization Assay of Ubiquitin Measured by DSF
Experimental: as §1
as §2, with “The 96-well plates are sealed with optical quality sealing tape (Bio-Rad) and centrifuged at 2500 g for 1 minutes immediately before the assay to remove possible air bubbles.” left out, “condition. […]” for “condition.”

In the case of `C[C@H](O[C@H]1O[C@H](CO)[C@@H](O)[C@H](O)[C@@H]1O)C(N)=O` [MLA, (2S)-2-O-(α-D-mannopyranosyl)-3-propanamide], the “stabilization effect on lysozyme (increase of melting temperature Tm)” value (lysozyme) is reported as “showed a stabilization effect”.

`CC(CC(N)=O)O[C@@H]1O[C@H](CO)[C@H](O)[C@H](O)[C@H]1O` (stereo partly drawn) [b-GaBA, 3-O-(β-D-galactopyranosyl)-3-hydroxybutyramide] was tested, and the “stabilization effect on lysozyme (increase of melting temperature Tm)” value (lysozyme) was “showed a stabilization effect”, the “stabilization effect on lysozyme at pH 12 compared with pH 3.6” value (“stabilization effect … compared with pH 3.6” below) (lysozyme) was “higher” and the “increase of the melting temperature of adalimumab” value (adalimumab (Humira®) [1]) was 22 °C.

With `C[C@H](OC1O[C@H](CO)[C@H](O)[C@H](O)[C@H]1O)C(N)=O` (stereo partly shown) [GaLA] the “stabilization effect on lysozyme (increase of melting temperature Tm)” value (lysozyme) was “showed a stabilization effect” and the “stabilization of Factor IX (increase of melting temperature)” value (Factor IX) was “showed stabilization of factor IX”.

With `NC(=O)COC1O[C@H](CO)[C@H](O)[C@H](O)[C@H]1O` (stereo partly shown) [GaGlyA] the “stabilization effect on lysozyme (increase of melting temperature Tm)” value (lysozyme) was “showed a stabilization effect”, the “stabilization effect … compared with pH 3.6” value (lysozyme) was “higher” and the “degradation of adalimumab after 12 hours at pH 3.2 (HPSEC)” value (adalimumab (Humira®) [2]) was “much reduced”.

With `CC(CC(N)=O)OC1O[C@H](CO)[C@@H](O)[C@H](O)[C@H]1O` (stereo partly drawn) [GBA, 3-O-(α/β-D-glucopyranosyl)-3-hydroxybutyramide] the “increase of the melting temperature of ubiquitin” value (ubiquitin) was 9 °C, the “stabilization effect on lysozyme (increase of melting temperature Tm)” value (lysozyme) was “showed a stabilization effect” and the “stabilization effect … compared with pH 3.6” value (lysozyme) was “higher”. The “stabilization of Factor IX (increase of melting temperature)” value (Factor IX) was “showed stabilization of factor IX”.

In the case of beta-galactosyl-lactamide [b-GaLA], the “stabilization effect on lysozyme (increase of melting temperature Tm)” value (lysozyme) is reported as “showed a stabilization effect” and the “stabilization effect … compared with pH 3.6” value (lysozyme) is reported as “higher”.

In the case of beta-glucosyl-lactamide [b-GLA], the “stabilization effect on lysozyme (increase of melting temperature Tm)” value (lysozyme) is reported as “showed a stabilization effect”.

In the case of `NC(=O)COC1O[C@H](CO)[C@@H](O)[C@H](O)[C@H]1O` (stereo partly shown) [GGlyA], the “stabilization of Factor IX (increase of melting temperature)” value (Factor IX) is reported as “showed stabilization of factor IX”.

For `NC(=O)CO[C@H]1O[C@H](CO)[C@@H](O)[C@H](O)[C@@H]1O` [MglyA, 2-O-(α-D-mannopyranosyl)acetamide], the “stabilization effect on lysozyme (increase of melting temperature Tm)” value (lysozyme) was “showed a stabilization effect” and the “stabilization of Factor IX (increase of melting temperature)” value (Factor IX) was “showed stabilization of factor IX”.
